The subject of series [1] is NNRTI-resistant (NNRTI-r) HIV-1 mutants (HXB2-based viruses encoding RT mutations K103N, Y181C, Y188L, L100I+K103N, G190A). Put plainly: Antiviral potency against panel of HIV-1 mutants: NNRTI-resistant. It counts as cell-based. The conditions noted are these: relative to WT; at least three experiments run in triplicate; control: NNRTI (EFV). As to the method: (§1) The human T-lymphoblastoid MT-2 and SupTI cell lines were obtained from the NIH AIDS Reagent Program (Germantown, MD) and maintained in RPMI-1640 medium supplemented with 10% heat-inactivated fetal bovine serum, 100 units/mL penicillin, and 10 μg/mL streptomycin (complete RPMI media). Cells were passaged twice per week and kept at densities less than 800,000 cells per mL. Adherent HEK293T cells were obtained from the Gladstone Institute for Virology and Immunology (San Francisco, CA) and maintained at densities below 80% confluency in Dulbecco's Modified Eagle Medium (DMEM) (Gibco) supplemented with 10% heat-inactivated FBS, 100 units/mL penicillin, and 10 μg/mL streptomycin (complete DMEM media). Unless otherwise noted, HIV-1 recombinant strains carrying mutations were prepared by transfecting infectious proviral pLAI-based or pHXB2-based cDNA clones into MT-2 cells and harvesting the cell supernatants. The NNRTI-resistant HXB2-based viruses encoding reverse transcriptase (RT) mutations (K103N, Y181C, Y188L, L100I+K103N, and G190A) were constructed by site-directed mutagenesis. The NRTI-resistant LAI-based viruses encoding RT mutations K65R, M184V, and M41L+T215Y were constructed by site-directed mutagenesis. […].
(§2) The EC50 fold change range is the mean±standard deviation from at least three experiments run in triplicate. […]

In series [2] the test system is HIV-1 (HXB2) site directed mutant E92Q. Put plainly: HIV-1 replication in MT-4 cells, INSTI resistant site-directed mutant E92Q. Format: cell-based. The conditions noted are these: 5 days, Cell Titer Glo, at least 3 independent experiments in quadruplicate. As to the method:
(§3) The compound of Formula I, along with control compounds bictegravir and raltegravir, were tested in a high-throughput 384-well assay format for ability to inhibit the replication of HIV-1 (HXB2) in MT-4 cells. Compounds were serially diluted (1:3) in 10 ul DMSO on 384-well plates and then diluted 187-fold into complete RPMI media using the uFLow and Biomek FX. 0.4 uL of compound was added in quadruplicate to 384-well assay plates. Each plate contained 8 test compounds, plus DMSO negative and 5 uM AZT positive controls. 1 mL aliquots of 2M MT-4 cells were pre-infected for 1 hr, @ 37° C. with 25 uL (MT-4) of either RPMI (mock-infected) or a fresh 1:250 dilution of an HIV-1 (HXB2 WT or site directed mutants containing either single INSTI Mutations E92Q, Y143R, Q148R, N155H, or R263K or double mutations E92Q/N155H, E138K/Q148K, or G140S/Q148R) concentrated ABI stock. Infected and uninfected cells were diluted in RPMI and 35 uL containing 2000 MT-4 cells was added to each well of assay plates, using the uFLow and subsequently incubated for 5 days at 37° C. in an incubator set at 5% CO2 and 90% humidity. After 5 days, 22 uL Cell Titer Glo (Promega, Madison, WI, Cat #G7573) was added to the assay plates with a Biotek uFlow Workstation. Plates were subsequently placed on a Perkin Elmer Envision Plate Reader for 5 minutes before the luminescence signal was read. EC50 values were defined as the compound concentration that causes a 50 decrease in luminescence signal, a measure of HIV-1 replication, and were calculated in Accord (online tool) using a one-site dose-response model to generate sigmoidal curve fits. Fold shifts for mutant viruses were obtained by calculating EC50 values relative to the HXB2 WT control.
(§4) The mean fold change values (relative to WT) are from at least 3 independent experiments assayed in quadruplicate.
A general note: In ATP-based viability assays light output follows the ATP content of the culture.

The subject of series [3] is HIV-1 (HXB2) site directed mutant Y143R. Put plainly: HIV-1 replication in MT-4 cells, INSTI resistant site-directed mutant Y143R. Format: cell-based. The conditions noted are these: 5 days, Cell Titer Glo, at least 3 independent experiments in quadruplicate. As to the method: as §3, §4
In series [4] the test system is HIV-1 (HXB2) site directed mutant Q148R. Put plainly: HIV-1 replication in MT-4 cells, INSTI resistant site-directed mutant Q148R. Format: cell-based. The conditions noted are these: 5 days, Cell Titer Glo, at least 3 independent experiments in quadruplicate. As to the method: as §3, §4
Series [5] has as its system NRTI-resistant (NRTI-r) HIV-1 mutants (LAI-based viruses encoding RT mutations K65R, M184V, M41L+T215Y). The experiment in a line: Antiviral potency against panel of HIV-1 mutants: NRTI-resistant. Format: cell-based. The conditions noted are these: relative to WT; at least three experiments run in triplicate; controls: NRTIs (TAF, FTC). As to the method: as §1, §2
Series [6] relates to PI-resistant (PI-r) HIV-1 mutants (HXB2-based viruses encoding protease mutations 150V, 184V+L90M, G48V+V82A+L90M, G48V+V82S). Put plainly: Antiviral potency against panel of HIV-1 mutants: PI-resistant. It counts as cell-based. The conditions noted are these: relative to WT; at least three experiments run in triplicate; controls: PIs (DRV, ATV). As to the method: as §1, §2
Series [7] concerns HIV-1 (HXB2) site directed mutant E92Q/N155H. The experiment in a line: HIV-1 replication in MT-4 cells, INSTI resistant site-directed mutant E92Q/N155H. Format: cell-based. The conditions noted are these: 5 days, Cell Titer Glo, at least 3 independent experiments in quadruplicate. As to the method:
as §3, §4

Series [8] has as its system HIV-1 (HXB2) site directed mutant E138K/Q148K. Put plainly: HIV-1 replication in MT-4 cells, INSTI resistant site-directed mutant E138K/Q148K. It counts as cell-based. The conditions noted are these: 5 days, Cell Titer Glo, at least 3 independent experiments in quadruplicate. As to the method:
as §3, §4

Series [9] concerns HIV-1 (HXB2) site directed mutant G140S/Q148R. Put plainly: HIV-1 replication in MT-4 cells, INSTI resistant site-directed mutant G140S/Q148R. It counts as cell-based. The conditions noted are these: 5 days, Cell Titer Glo, at least 3 independent experiments in quadruplicate. As to the method:
as §3, §4

The test system of series [10] is CAI-resistant (CAI-r) HIV-1 reporter viruses encoding capsid mutations (L56I, N57H, M66I, K70N, Q67H+N74D, Q67H+T107N). Put plainly: Antiviral potency against panel of HIV-1 mutants: CAI-resistant single cycle reporter viruses. It counts as cell-based. The conditions noted are these: relative to WT; at least three experiments run in triplicate; control: CAI (LEN). As to the method:
as §1, §2

For series [11], the system named is HIV-1 (HXB2) site directed mutant N155H. Put plainly: HIV-1 replication in MT-4 cells, INSTI resistant site-directed mutant N155H. It counts as cell-based. The conditions noted are these: 5 days, Cell Titer Glo, at least 3 independent experiments in quadruplicate. As to the method:
as §3, §4

Series [12] has as its system HIV-1 (HXB2) site directed mutant R263K. Put plainly: HIV-1 replication in MT-4 cells, INSTI resistant site-directed mutant R263K. It counts as cell-based. The conditions noted are these: 5 days, Cell Titer Glo, at least 3 independent experiments in quadruplicate. As to the method:
as §3, §4

Series [13] is described as follows: Hygroscopicity by dynamic vapor sorption (DVS) of crystalline forms, salts and co-crystals. It counts as physicochemical. As to the method:
Hygroscopicity was studied using dynamic vapor sorption (DVS, TA Q5000 SA, TA Instruments, New Castle, DE or DVS, DVS Intrinsic, Surface Measurement Systems, London, UK). […] The water sorption and desorption were studied as a function of relative humidity (RH) at 25° C. […] Data analysis was performed using Universal Analysis 2000 Version 4.7A (TA Instruments, New Castle, DE) for TA DVS runs and Microsoft Excel for SMS DVS runs.

From patent publication US20250296932A1, “PHARMACEUTICAL COMPOSITIONS COMPRISING HIV INTEGRASE INHIBITORS” (priority 2024, published 2025) come the findings set out here.

Consider `C[C@@H]1C=C[C@H](C)N2CN1n1cc(C(=O)NCc3c(F)cc(F)cc3F)c(=O)c(O)c1C2=O` [Compound of Formula I, (1S,2R,5S)-8-hydroxy-2,5-dimethyl-7,9-dioxo-N-(2,4,6-trifluorobenzyl)-2,5,7,9-tetrahydro-1,6-methanopyrido[1,2-b][1,2,5]triazonine-10-carboxamide], for which, in [1], the “EC50 Fold Change, Range, NNRTI-r” value is reported as 0.7-2.4 fold. In series [2], the “Mean EC50 Fold Change (relative to WT), E92Q” value stood at 2.7 fold. The “Mean EC50 Fold Change (relative to WT), Y143R” value in series [3] stood at 2.5 fold. Also, the “Mean EC50 Fold Change (relative to WT), Q148R” value in [4] turned out to be 1.0 fold. In addition, the “EC50 Fold Change, Range, NRTI-r” value in series [5] is recorded as 0.4-0.8 fold. In addition, in [6], the “EC50 Fold Change, Range, PI-r” value is listed as 0.4-1.3 fold. Moreover, in series [7], the “Mean EC50 Fold Change (relative to WT), E92Q/N155H” value came to 1.8 fold. In addition, in series [8], the “Mean EC50 Fold Change (relative to WT), E138K/Q148K” value was 9.5 fold. In addition, in series [9], the “Mean EC50 Fold Change (relative to WT), G140S/Q148R” value was 5.5 fold. Further, the “EC50 Fold Change, Range, CAI-r” value in [10] is reported as 0.8-1.2 fold. Further, in series [11], the “Mean EC50 Fold Change (relative to WT), N155H” value is listed as 1.9 fold. In addition, the “Mean EC50 Fold Change (relative to WT), R263K” value in series [12] was found to be 2.0 fold.
Turning to `O=C(NCc1c(F)cc(F)cc1F)c1cn2c(c(O)c1=O)C(=O)N1[C@H]3CC[C@H](C3)O[C@@H]1C2` [Bictegravir], the “Mean EC50 Fold Change (relative to WT), E92Q” value in [2] was determined as 1.6 fold. The “Mean EC50 Fold Change (relative to WT), Y143R” value in series [3] amounted to 1.8 fold. Further, the “Mean EC50 Fold Change (relative to WT), Q148R” value in series [4] was found to be 0.7 fold. For the same compound, the “Mean EC50 Fold Change (relative to WT), E92Q/N155H” value in series [7] was 1.2 fold. In addition, the “Mean EC50 Fold Change (relative to WT), E138K/Q148K” value in series [8] amounted to 4.4 fold. Further, the “Mean EC50 Fold Change (relative to WT), G140S/Q148R” value in series [9] is recorded as 2.1 fold. In addition, the “Mean EC50 Fold Change (relative to WT), N155H” value in series [11] came out at 1.3 fold. In series [12], the “Mean EC50 Fold Change (relative to WT), R263K” value worked out at 1.9 fold.
Regarding `Cc1nnc(C(=O)NC(C)(C)c2nc(C(=O)NCc3ccc(F)cc3)c(O)c(=O)n2C)o1` [Raltegravir], in series [2], the “Mean EC50 Fold Change (relative to WT), E92Q” value is on record as 4.8 fold. For the same compound, the “Mean EC50 Fold Change (relative to WT), Y143R” value in series [3] is 18 fold. Also, in [4], the “Mean EC50 Fold Change (relative to WT), Q148R” value was 16 fold. The “Mean EC50 Fold Change (relative to WT), E92Q/N155H” value in series [7] is 58 fold. Besides, the “Mean EC50 Fold Change (relative to WT), E138K/Q148K” value in series [8] was 6.5 fold. The “Mean EC50 Fold Change (relative to WT), G140S/Q148R” value in [9] was 108 fold. In addition, the “Mean EC50 Fold Change (relative to WT), N155H” value in series [11] came out at 6.1 fold. Moreover, in series [12], the “Mean EC50 Fold Change (relative to WT), R263K” value was 1.1 fold.
Take `C[C@@H]1C=C[C@H](C)N2CN1n1cc(C(=O)NCc3c(F)cc(F)cc3F)c(=O)c(O)c1C2=O` [Compound of Formula I, Form I, (1S,2R,5S)-8-hydroxy-2,5-dimethyl-7,9-dioxo-N-(2,4,6-trifluorobenzyl)-2,5,7,9-tetrahydro-1,6-methanopyrido[1,2-b][1,2,5]triazonine-10-carboxamide]: the “form of the material post DVS experiment” value in series [13] (after DVS sorption/desorption at 25° C.) was “not have changed form”. For the same compound, the “water absorbed (DVS)” value in [13] (up to 95% RH at 25° C.) is “about 0.15%”.
